From publication PMC8286840, “Identifying SARS-CoV-2 antiviral compounds by screening for small molecule inhibitors of Nsp3 papain-like protease” (Biochemical Journal, 2021)
Counter-ions that a name gives are not always drawn. Like-named read-outs stand apart in the source and are kept apart here.

Tests used:
[1] = biological target: T1, SARS-CoV-2 PLpro (nsp3 1564–1878) (Severe acute respiratory syndrome coronavirus 2, UniProt P0DTD1); assay: biochemical; parameters: FRET-quenched peptide (Pro3) cleavage by PLpro, 10 min pre-incubation, slope over 20 min, normalised to no-compound control; conditions: high concentration screen, read-out: % of control remaining
[2] = biological target: T1, SARS-CoV-2 PLpro (nsp3 1564–1878); assay: biochemical; parameters: FRET-quenched peptide (Pro3) cleavage by PLpro, 10 min pre-incubation, slope over 20 min, normalised to no-compound control; conditions: low concentration screen, read-out: % of control remaining

How did the remaining activity at 3.75 µM ([1]; Well no.=3669) turn out when C[C@@]12CCc3occc3[C@H]1CC[C@]13CC(=O)[C@H](CC[C@H]12)C3 [16-Oxocafestol] was run?
The remaining activity at 3.75 µM was 91.5%.

What about the remaining activity at 1.25 µM ([2]; Well no.=3669) of the same compound?
The remaining activity at 1.25 µM was 92.6%.

What does the source list for COc1c(O)cc2c(c1O)[C@@H]1O[C@H](CO)[C@@H](O)[C@H](O)[C@H]1OC2=O [Bergenin]?
remaining activity at 3.75 µM ([1]; Well no.=3517): 107%; remaining activity at 1.25 µM ([2]; Well no.=3517): 103%

Which results are given for Cc1[nH]c2ccccc2c1CC(=O)N[C@@H](Cc1ccccc1)C(=O)N(C)c1ccccc1 [(S)-N-methyl-2-(2-(2-methyl-1H-indol-3-yl)acetamido)-N,3-diphenylpropanamide]?
remaining activity at 3.75 µM ([1]; Well no.=5917): 103%; remaining activity at 1.25 µM ([2]; Well no.=5917): 106%

What does the source list for CC(CN)C(=O)O (stereo not shown) [3-Amino-2-methylpropanoic acid]?
remaining activity at 3.75 µM ([1]; Well no.=6787): 97.6%; remaining activity at 1.25 µM ([2]; Well no.=6787): 101%

Which results are given for CCOC(=O)C1=CCCC[C@H]1S(=O)(=O)Nc1ccc(F)cc1Cl [Resatorvid]?
remaining activity at 3.75 µM ([1]; Well no.=8421): 90.5%; remaining activity at 1.25 µM ([2]; Well no.=8421): 90.4%

What does the source list for CN(C)CCCCC(=O)Nc1ccc(NC(=S)NC(=O)c2ccc(C(C)(C)C)cc2)cc1 [Tenovin-6]?
remaining activity at 3.75 µM ([1]; Well no.=6724): 92%; remaining activity at 1.25 µM ([2]; Well no.=6724): 93.8%

What does the source list for CC(=O)O[C@H]1CC[C@@]2(C)C(=CC[C@@H]3[C@@H]2CC[C@]2(C)C(c4cccnc4)=CC[C@@H]32)C1 [Abiraterone Acetate (CB7630)]?
remaining activity at 3.75 µM ([1]; Well no.=5274): 79.5%; remaining activity at 1.25 µM ([2]; Well no.=5274): 88.4%

Which results are given for CC1=C(/C=C/C(C)=C/C=C/C(C)=C\C(=O)O)C(C)(C)CCC1 [Isotretinoin]?
remaining activity at 3.75 µM ([1]; Well no.=6303): 108%; remaining activity at 1.25 µM ([2]; Well no.=6303): 108%

NNCCc1ccccc1 [Phenelzine sulfate] was tested. Which remaining activity at 3.75 µM ([1]; Well no.=1203) did it give?
Its remaining activity at 3.75 µM is 98.7%.

And the remaining activity at 1.25 µM ([2]; Well no.=1203)?
Its remaining activity at 1.25 µM is 99.6%.

C[C@@H]1c2cc(O)c(O)cc2CCN1C [N-methyl-R-salsolinol hydrobromide] was tested. Which remaining activity at 3.75 µM ([1]; Well no.=830) did it give?
Its remaining activity at 3.75 µM is 101%.

What about the remaining activity at 1.25 µM ([2]; Well no.=830) of the same compound?
The remaining activity at 1.25 µM was 99.6%.

What does the source list for CN(C)[C@@H]1C(O)=C(C(N)=O)C(=O)[C@@]2(O)C(O)=C3C(=O)c4c(O)cccc4[C@@](C)(O)[C@H]3[C@H](O)[C@@H]12 [Oxytetracycline dihydrate]?
remaining activity at 3.75 µM ([1]; Well no.=4718): 99.6%; remaining activity at 1.25 µM ([2]; Well no.=4718): 102%

Which remaining activity at 3.75 µM ([1]; Well no.=7621) does the source give for OC(CCCN1CCCCC1)(c1ccccc1)c1ccccc1 [Diphenidol (hydrochloride)] here?
Its remaining activity at 3.75 µM is 102%.

What about the remaining activity at 1.25 µM ([2]; Well no.=7621) of the same compound?
The remaining activity at 1.25 µM was 102%.

With CNCC(O)c1ccc(O)c(O)c1 [L-Epinephrine (Bitartrate)] as the compound, how does the remaining activity at 3.75 µM ([1]; Well no.=6952) read?
Its remaining activity at 3.75 µM is 94.1%.

What about the remaining activity at 1.25 µM ([2]; Well no.=6952) of the same compound?
The remaining activity at 1.25 µM was 98%.

How did the remaining activity at 3.75 µM ([1]; Well no.=972) turn out when CC[N+](CC)(CC)CCOc1ccc(/C=C/c2ccccc2)cc1 [MG 624] was run?
The remaining activity at 3.75 µM was 101%.

And the remaining activity at 1.25 µM ([2]; Well no.=972)?
The remaining activity at 1.25 µM was 100%.

Which remaining activity at 3.75 µM ([1]; Well no.=5768) does the source give for CC1(C)CCC(C)(C)c2cc(C3(c4ccc(C(=O)O)cc4)OCCO3)ccc21 [SR11237] here?
Its remaining activity at 3.75 µM is 90.6%.

What about the remaining activity at 1.25 µM ([2]; Well no.=5768) of the same compound?
The remaining activity at 1.25 µM was 96%.

What does the source list for O=C(/C=C/C=C/c1ccc2c(c1)OCO2)N1CCCCC1 [Piperine]?
remaining activity at 3.75 µM ([1]; Well no.=3110): 94.5%; remaining activity at 3.75 µM ([1]; Well no.=8242): 96.3%; remaining activity at 1.25 µM ([2]; Well no.=3110): 92.8%; remaining activity at 1.25 µM ([2]; Well no.=8242): 99.3%

What does the source list for COc1cc(/C=C/C(=O)CC(=O)/C=C/c2ccc(O)c(OC)c2)ccc1O [Curcumin]?
remaining activity at 3.75 µM ([1]; Well no.=3177): 105%; remaining activity at 3.75 µM ([1]; Well no.=3949): 102%; remaining activity at 1.25 µM ([2]; Well no.=3177): 112%; remaining activity at 1.25 µM ([2]; Well no.=3949): 106%

What does the source list for CN(C)CCCN1c2ccccc2Sc2ccccc21 [Promazine hydrochloride]?
remaining activity at 3.75 µM ([1]; Well no.=1155): 102%; remaining activity at 1.25 µM ([2]; Well no.=1155): 104%

Which results are given for CNCCc1ccccn1 [Betahistine (dihydrochloride)]?
remaining activity at 3.75 µM ([1]; Well no.=6621): 92.4%; remaining activity at 1.25 µM ([2]; Well no.=6621): 98.5%

O=C(Nc1ccc(S(=O)(=O)Nc2nccs2)cc1)C(c1ccccc1)c1ccccc1 [2,2-diphenyl-N-{4-[(1,3-thiazol-2-ylamino)sulfonyl]phenyl}acetamide] was tested. Which remaining activity at 3.75 µM ([1]; Well no.=5558) did it give?
Its remaining activity at 3.75 µM is 96.4%.

What about the remaining activity at 1.25 µM ([2]; Well no.=5558) of the same compound?
The remaining activity at 1.25 µM was 92.9%.

What does the source list for CNC(=O)[C@H]1O[C@@H](n2cnc3c(NCc4ccc(N)cc4)ncnc32)[C@H](O)[C@@H]1O [AB-MECA]?
remaining activity at 3.75 µM ([1]; Well no.=306): 87.8%; remaining activity at 3.75 µM ([1]; Well no.=8699): 98.3%; remaining activity at 1.25 µM ([2]; Well no.=306): 87.3%; remaining activity at 1.25 µM ([2]; Well no.=8699): 95.8%

What does the source list for O=C1NC(=O)c2c1c(-c1ccccc1Cl)cc1[nH]c3ccc(O)cc3c21 [Wee1 Inhibitor]?
remaining activity at 3.75 µM ([1]; Well no.=2683): 97.7%; remaining activity at 1.25 µM ([2]; Well no.=2683): 97.3%

For CC(C)OC(=O)N1CCC(Oc2ncnc3c2cnn3-c2ccc(S(C)(=O)=O)cc2F)CC1 [APD668], which remaining activity at 3.75 µM ([1]; Well no.=6274) is on record?
The remaining activity at 3.75 µM was 104%.

And the remaining activity at 1.25 µM ([2]; Well no.=6274)?
The remaining activity at 1.25 µM was 105%.

Which results are given for [N-]=[N+]=Nc1ccc(C(=O)CSC[C@H](NC(=O)CC[C@H](N)C(=O)O)C(=O)NCC(=O)O)cc1 [S-(p-Azidophenacyl)glutathione]?
remaining activity at 3.75 µM ([1]; Well no.=105): 110%; remaining activity at 1.25 µM ([2]; Well no.=105): 107%

O=C(OC1CCN(CCCl)CC1)C(c1ccccc1)c1ccccc1 [4-Diphenylacetoxy-N-(2-chloroethyl)piperidine hydrochloride] was tested. Which remaining activity at 3.75 µM ([1]; Well no.=594) did it give?
Its remaining activity at 3.75 µM is 92.6%.

And the remaining activity at 1.25 µM ([2]; Well no.=594)?
The remaining activity at 1.25 µM was 92.6%.

What does the source list for COc1ccc(-c2cc(=O)c3ccc(O)cc3o2)cc1 [Pratol]?
remaining activity at 3.75 µM ([1]; Well no.=3829): 96.6%; remaining activity at 1.25 µM ([2]; Well no.=3829): 97.5%

Which remaining activity at 3.75 µM ([1]; Well no.=1549) does the source give for CCC[C@@H]1C[C@@H](C(=O)N[C@@H]([C@H]2O[C@H](SC)[C@H](O)[C@@H](O)[C@H]2O)[C@@H](C)O)N(C)C1 [Lincomycin] here?
Its remaining activity at 3.75 µM is 105%.

And the remaining activity at 3.75 µM ([1]; Well no.=3377)?
The remaining activity at 3.75 µM was 96.8%.

And the remaining activity at 1.25 µM ([2]; Well no.=1549)?
The remaining activity at 1.25 µM was 102%.

And the remaining activity at 1.25 µM ([2]; Well no.=3377)?
The remaining activity at 1.25 µM was 96.3%.

With CCn1c2ccccc2c2cc(CNC)ccc21 [PhiKan 083] as the compound, how does the remaining activity at 3.75 µM ([1]; Well no.=6830) read?
Its remaining activity at 3.75 µM is 93.9%.

What about the remaining activity at 1.25 µM ([2]; Well no.=6830) of the same compound?
Its remaining activity at 1.25 µM is 93.5%.

Which results are given for COc1nccc(-c2c(-c3ccc(F)cc3)ncn2C2CCNCC2)n1 [SB242235]?
remaining activity at 3.75 µM ([1]; Well no.=2701): 105%; remaining activity at 1.25 µM ([2]; Well no.=2701): 105%

With Clc1ccc2c(c1)C(N1CCNCC1)=Nc1ccccc1O2 [Amoxapine] as the compound, how does the remaining activity at 3.75 µM ([1]; Well no.=158) read?
Its remaining activity at 3.75 µM is 97.1%.

And the remaining activity at 3.75 µM ([1]; Well no.=1690)?
The remaining activity at 3.75 µM was 103%.

What about the remaining activity at 1.25 µM ([2]; Well no.=158) of the same compound?
The remaining activity at 1.25 µM was 97.7%.

And the remaining activity at 1.25 µM ([2]; Well no.=1690)?
Its remaining activity at 1.25 µM is 102%.

How did the remaining activity at 3.75 µM ([1]; Well no.=1774) turn out when CCC1(c2ccccc2)NC(=O)N(C)C1=O (stereo not shown) [Mephenytoin] was run?
Its remaining activity at 3.75 µM is 99.4%.

What about the remaining activity at 1.25 µM ([2]; Well no.=1774) of the same compound?
The remaining activity at 1.25 µM was 99.1%.

Which results are given for Cc1c(O)c(=O)ccn1C [Deferiprone]?
remaining activity at 3.75 µM ([1]; Well no.=5130): 98.7%; remaining activity at 1.25 µM ([2]; Well no.=5130): 97.3%

With CC(=O)C(=O)O [Pyruvic acid] as the compound, how does the remaining activity at 3.75 µM ([1]; Well no.=6683) read?
The remaining activity at 3.75 µM was 94.5%.

And the remaining activity at 1.25 µM ([2]; Well no.=6683)?
The remaining activity at 1.25 µM was 92.9%.
